{
  "source": "paper PMC5933457",
  "about": "“Probing biological activity through structural modelling of ligand-receptor interactions of 2,4-disubstituted thiazole retinoids” (Bioorganic & Medicinal Chemistry, 2018)",
  "key": {"TERA2.cl.SP12 stem cells": {"system": "TERA2.cl.SP12 stem cells", "test": "Real-time PCR for neuronal markers NeuroD1 and PAX6", "type": "cell-based, human", "conditions": "10 μM, Fig. 7B; for induction of PAX6 expression, rank order: up to 7 days", "procedure": "Second, NeuroD1 and PAX6 are retinoid-induced transcription factors involved in regulating neuronal differentiation,[49], [50] and are expressed in neurons derived from TERA2.cl.SP12 stem cells.\n(§1) Real time PCR was carried out immediately after treatment on both cell line lysates with 0.25% trypsin–EDTA. TERA-2.cl.SP12 cells were seeded at a density of 1 × 10^6 cells per 25 cm^2 flask, 12–24 h before treatment. […] SH-SY5Y cells were seeded at a density of 1 × 10^6 cells per 25 cm^2 flask, 12–24 h before treatment. […] Commercial RNA extraction kits (Qiagen) and reverse transcription (Applied Biosystems) kits were purchased and procedures used according to the manufacturer instructions. Real time PCR was performed using the TaqMan® Universal PCR Master Mix (Life technologies) and TaqMan® gene expression system (Applied Biosystems) based on probe sets to the specific genes to be analysed. Genecodes used are as follows: RARβ (Hs00233407_m1), CYP26-A1 (Hs00175627_m1), RARα (Hs00940448_g1), RARγ (Hs01559234_m1), PAX-6 (Hs01088112_m1), NeuroD1 (Hs01922995_s1). GADPH (Hs02758991_g1) and ACTB (Hs99999903_m1) were used as internal control genes for TERA-2.cl.SP12 and SH-SY5Y, respectively."}, "[1]": {"system": "SH-SY5Y human neuroblastoma cells", "test": "Retinoid-induced gene expression (RARα, RARβ, RARγ, CYP26A1) by real-time PCR", "type": "cell-based", "conditions": "for induction of RARα and RARγ expression: 10 μM retinoid, over a 12 h period, Fig. 8A; for induction of RARβ expression, rank order / induction of CYP26A1 expression, rank order: dose-response 1 nM to 1 μM, 8 h treatment, Fig. 8B; for induction of RARβ expression, rank order: all doses; for induction of CYP26A1 expression, rank order: doses <1 μM", "procedure": "As an additional assay of biological activity, short-term changes in expression of four genes in SH-SY5Y cells was employed; a neuroblastoma-derived lineage that undergoes neuronal differentiation in response to retinoid treatment. The four genes assayed, RARα, RARβ, RARγ and CYP26A, have RAREs associated with their promoters and may be directly regulated by retinoids.[51], [52]\nas §1"}, "RARβ": {"system": "RARβ", "conditions": "RARβ2 isoform; cited from earlier work"}},
  "data": [
    {"smiles": "CCOCCOc1nc(-c2ccc(C(=O)O)cc2)sc1C", "note": "[GZ18]", "values": [
      {"measurement": "NeuroD1 mRNA expression, rank order", "setting": "TERA2.cl.SP12 stem cells; after 5 days", "value": "GZ25 > GZ18 > ATRA"},
      {"measurement": "induction of PAX6 expression, rank order", "setting": "TERA2.cl.SP12 stem cells", "value": "GZ25 ≫ ATRA > GZ18"},
      {"measurement": "time-course of RARβ and CYP26A1 induction", "setting": "[1]; 10 μM retinoid treatment", "value": "less active in comparison to either GZ25 or ATRA"},
      {"measurement": "induction of RARα and RARγ expression", "setting": "[1]", "value": "lower levels of induction"},
      {"measurement": "induction of RARβ expression, rank order", "setting": "[1]", "value": "GZ25 ≫ ATRA > GZ18"},
      {"measurement": "induction of CYP26A1 expression, rank order", "setting": "[1]", "value": "GZ25 > GZ18 > ATRA"},
      {"measurement": "RAR-type selectivity", "setting": "RARβ", "value": "RARβ2-specific retinoid"}
    ]},
    {"smiles": "Cc1sc(-c2ccc(C(=O)O)cc2)nc1-c1ccc2c(c1)C(C)(C)CCC2(C)C", "note": "[GZ25]", "values": [
      {"measurement": "NeuroD1 mRNA expression, rank order", "setting": "TERA2.cl.SP12 stem cells; after 5 days", "value": "GZ25 > GZ18 > ATRA"},
      {"measurement": "NeuroD1 mRNA expression, rank order", "setting": "TERA2.cl.SP12 stem cells; after 7 days", "value": "ATRA > GZ25"},
      {"measurement": "induction of PAX6 expression, rank order", "setting": "TERA2.cl.SP12 stem cells", "value": "GZ25 ≫ ATRA > GZ18"},
      {"measurement": "induction of RARα and RARγ expression", "setting": "[1]", "value": "lower levels of induction"},
      {"measurement": "induction of RARβ expression, rank order", "setting": "[1]", "value": "GZ25 ≫ ATRA > GZ18"},
      {"measurement": "induction of CYP26A1 expression, rank order", "setting": "[1]", "value": "GZ25 > GZ18 > ATRA"}
    ]}
  ]
}
